Assay results as given in patent publication US20250289789A1, “REVERSIBLE LYSINE COVALENT MODIFIERS OF CDK2 AND USES THEREOF” (Terremoto Biosciences, Inc., priority 2023, published 2025).
In brackets after ≈: the same amount, converted by molar mass.

How the values were obtained:
[1] = Oral bioavailability and pharmacokinetic analysis following oral administration in Nu/Nu mice; settings: male, in vivo; for Prodrug AUCinf: mouse, 6 mg
Experimental: Compound was administered via oral gavage in male Nu/Nu mice (n=3). The vehicle composition was 10% N-Methylpyrrolidone, 40% PEG300, 50% water (pH=4-8) at 6 mg-equivalent/mL to parent drug and a dose volume of 5 mL/Kg. Formulations were prepared freshly before dosing and stored at room temperature. Plasma samples were collected at the following time intervals: 0.5, 1, 2, 4, 8, 12, 24, 48, and 72 hours post dose (based on the start of oral dosing). Serial blood samples were collected (approximately 0.025 mL) via retro-orbital vein into K2EDTA. Whole blood was processed into plasma by centrifuge (4000 rpm for 5 minutes at 4° C.) followed by addition of 0.5 M ammonium formate (pH=3, 300% of plasma volume). Plasma samples were stored in a freezer at −75±15° C. until analysis. Plasma samples were analyzed after thawing and incubating for 1 h at 37° C. followed by protein precipitation with acetonitrile containing IS mixture (vortex 30 s, centrifugation at 4° C., 400 rpm for 15 min) and the resulting supernatant was further diluted with water before injecting onto Shimadzu 8060 LC-MS/MS system for analysis. Unknown plasma samples concentration was calibrated using standard range of 0.2 to 1 000 ng/mL for parent.
Bioavailability (% F) was calculated by comparing observed plasma concentrations of parent drug after oral administration of prodrug or parent drug to observed plasma concentrations via IV (intravenous) administration of parent drug.

[2] = Solubility determination in PBS pH 7.4; format: physicochemical; settings: aqueous buffer, kinetic from dmso stock; PBS pH 7.4, 2 hours, 25° C.; the listed prodrug
Experimental: Stock solutions (10 mM DMSO, 30 μL) of each sample were placed into 96-well plate, along with 970 μL of PBS pH 7.4 were added into each vial of the cap-less solubility sample plate. The assay was performed in duplicate. A stir stick was added to each well and sealed using a molded PTFE/Silicone plug. Then the Solubility Sample plate was transferred to an Eppendorf Thermomixer Comfort plate shaker and shaken at 1100 RPM for 2 hours at 25° C. After completion the plugs and stir sticks were removed and the samples were transferred into a filter plate and filtered using a vacuum manifold. 5 μL aliquots of filtrate were taken and diluted with 5 μL DMSO and 490 μL of a 1:1 v/v mixture of H2O and acetonitrile. 200 μL of diluent was transferred to a new 96-well plate for LC-MS/MS analysis. The solution was analyzed and quantified against a standard of known concentration in DMSO using LC coupled with Mass spectral peak for identification and quantitation.

Row | Compound | solubility at 2 h [2] [µM] | Prodrug Mouse % F [1] [%] | Prodrug AUCinf [1] [µM·h]
1 | COc1cc(O)c(/C=N/C(C)C)c(OCC(=O)Nc2cc([C@H]3CC[C@@H](OC(=O)N4C5COCC4C5)C3)[nH]n2)c1 [Compound 231a, (1R,3S)-3-(3-(2-(3-hydroxy-2-((E)-(isopropylimino)methyl)-5-methoxyphenoxy)acetamido)-1H-pyrazol-5-yl)cyclopentyl 3-oxa-6-azabicyclo[3.1.1]heptane-6-carboxylate] |  | 2.8 | 12.9
2 | COc1cc(O)c(/C=N/C(C)C)c(OCC(=O)Nc2cc([C@H]3CC[C@@H](OC(=O)N4CC5CC(C4)O5)C3)[nH]n2)c1 [Compound 235a, (1R,3S)-3-(3-(2-(3-hydroxy-2-((E)-(isopropylimino)methyl)-5-methoxyphenoxy)acetamido)-1H-pyrazol-5-yl)cyclopentyl 6-oxa-3-azabicyclo[3.1.1]heptane-3-carboxylate] |  | 3.2 | 15.2
3 | CCC/N=C/c1c(O)cc(OC)cc1OCC(=O)Nc1cc([C@H]2CC[C@@H](OC(=O)NC3(C)CC3)C2)[nH]n1 [Compound 251b, (1R,3S)-3-(3-(2-(3-hydroxy-5-methoxy-2-((E)-(propylimino)methyl)phenoxy)acetamido)-1H-pyrazol-5-yl)cyclopentyl (1-methylcyclopropyl)carbamate] | 41 (≈ 21.1 µg/mL) |  | 
4 | CCOC(=O)C/N=C/c1c(O)cc(OC)cc1OCC(=O)Nc1cc([C@H]2CC[C@@H](OC(=O)NC(C)C)C2)[nH]n1 [Compound 64p, Ethyl 2-(((E)-2-hydroxy-6-(2-((5-((1S,3R)-3-((isopropylcarbamoyl)oxy)cyclopentyl)-1H-pyrazol-3-yl)amino)-2-oxoethoxy)-4-methoxybenzylidene)amino)acetate] | 4.8 (≈ 2.62 µg/mL) |  | 
5 | CCCNC(=O)O[C@@H]1CC[C@H](c2cc(NC(=O)COc3cc(OC)cc(O)c3/C=N/C(C)C)n[nH]2)C1 [Compound 221a, (1R,3S)-3-(3-(2-(3-hydroxy-2-((E)-(isopropylimino)methyl)-5-methoxyphenoxy)acetamido)-1H-pyrazol-5-yl)cyclopentyl propylcarbamate] | 156 (≈ 78.2 µg/mL) |  | 

Further lines, with some results ahead:

Row | solubility at 2 h [2] [µM] | Compound | Prodrug Mouse % F [1] [%] | Prodrug AUCinf [1] [µM·h]
6 | 243 (≈ 138 µg/mL) | COc1cc(O)c(/C=N/CCS(=O)(=O)O)c(OCC(=O)Nc2cc([C@H]3CC[C@@H](OC(=O)NC(C)C)C3)[nH]n2)c1 [Compound 64q, 2-(((E)-2-hydroxy-6-(2-((5-((1S,3R)-3-((isopropylcarbamoyl)oxy)cyclopentyl)-1H-pyrazol-3-yl)amino)-2-oxoethoxy)-4-methoxybenzylidene)amino)ethane-1-sulfonic acid] |  | 
7 | 79 (≈ 39.6 µg/mL) | CCC/N=C/c1c(O)cc(OC)cc1OCC(=O)Nc1cc([C@H]2CC[C@@H](OC(=O)NC(C)C)C2)[nH]n1 [Compound 64b, (1R,3S)-3-(3-(2-(3-hydroxy-5-methoxy-2-((E)-(propylimino)methyl)phenoxy)acetamido)-1H-pyrazol-5-yl)cyclopentyl isopropylcarbamate] |  | 
8 | 67 (≈ 34.5 µg/mL) | CCCC/N=C/c1c(O)cc(OC)cc1OCC(=O)Nc1cc([C@H]2CC[C@@H](OC(=O)NC(C)C)C2)[nH]n1 [Compound 64d, (1R,3S)-3-(3-(2-(2-((E)-(butylimino)methyl)-3-hydroxy-5-methoxyphenoxy)acetamido)-1H-pyrazol-5-yl)cyclopentyl isopropylcarbamate] |  | 
